“And” between values parts separate entries of the source, which are not always exact repeats. Equal entries are not always repeated. “Also recorded” adds a separate entry of the source.
Experiments:
R493X progranulin [1] = assay: Read-through of progranulin R493X nonsense mutation in transfected N2A cells (FLAG Western blot); format: cell-based, human; conditions: for read-through of R493X progranulin (FLAG-positive bands in Western blot): N2A cells transfected with R493X progranulin, two concentrations of each compound; for read-through of R493X progranulin (FLAG-positive bands in Western blot) / read-through, FLAG band intensity as percentage of WT progranulin: 24 hours; for rescued R493X expression / read-through efficiency as % of wild-type progranulin (summary statement): N2A cell culture, conditions not restated; for read-through, FLAG band intensity as percentage of WT progranulin: dose response, maximal concentration 2000 μg/ml
Text: (§1) The WT progranulin plasmid with a C-terminal FLAG tag (pC-Flag-PGRN-WT) was purchased from Sino Biological Inc. (Cat. HG10826-CF). Three nonsense mutations, Q125X, R229X and R493X, were generated using Q5 site-directed mutagenesis kit (New England Biolabs Inc., Cat. E0554S) to introduce a single nucleotide substitution in the WT progranulin gene (FIG. 1A). The WT progranulin with an N-terminal HA tag (HA-PGRN) was also generated by subcloning using the p3xHA vector (58) and HindIII and BamHI sites.
(§2) N2A cells were maintained in DMEM (Sigma, D5796) supplemented with 10% fetal bovine serum, 100 unit/mL penicillin, and 100 μg/mL streptomycin. Transient transfection was performed using Lipofectamine 2000 (Invitrogen, Life Technologies, Grand Island, N.Y., USA). […] was used for each well of 6-well plate unless otherwise described. After 6 hours transfection, fresh medium containing aminoglycoside at indicated concentrations was added to cells. Cells were applied to following experiments after exposed to drugs at certain time points. All cells were kept in a humidified incubator at 37° C. under 5% CO2/95% air.
Eleven aminoglycosides were tested in this study: G418 (Sigma-Aldrich, Cat. 4727878001), gentamicin (Sigma-Aldrich, Cat. G1397), Kanamycin (Gold Biotechnology, Cat. K-120-25), Streptomycin (Sigma-Aldrich, Cat. S9137), Amikacin (Alta Aesar, Cat. J67496), Tobramycin (Alta Aesar, Cat. J62995), Apramycin (Sigma-Aldrich, Cat. A2024), Neomycin B (Sigma-Aldrich, Cat. N6386), Netilmicin (Alta Aesar, Cat. J66302), Paromomycin (Alta Aesar, Cat. J61274), Sisomicin (Sigma-Aldrich, Cat. S7796). PTC124 was purchased from Med Chem Express (Cat. 775304-57-9).
Cells were lysed in RIPA buffer (Millipore Sigma, Cat. 20-188), centrifuged at 1000 g for 10 mins to remove debris, and then subjected to SDS electrophoresis. After electrophoresis, gels were proceeded for transferring onto nitrocellulose membranes. The membranes were then blocked with 5% milk in TBST (100 mM TRIS-HCl, pH7.5, 0.9% NaCl, 0.1% Tween-20) and incubated with indicated primary antibodies in the same solution. All immunoblotting images were acquired using a BioRad ChemiDoc MP system.
(§3) WT progranulin and three plasmids each with a single nonsense mutation (Q125X, Y229X, or R493X) and a C-terminal Flag tag (FIG. 1A) were constructed. A full-length protein must be generated for the FLAG to be detected, thus a truncated progranulin will not be detected by FLAG Western blotting. If read-through of the progranulin PTC occurs, then progranulin will be detectable by FLAG Western blotting.
R493X, which is the most common nonsense mutation in progranulin-mediated familial FTD (8, 31), was chosen to test whether aminoglycosides could induce read-through. N2A cells were transfected with the indicated plasmid, allowed to recover for 6 hours, and fresh media containing the aminoglycoside at the indicated concentrations was added to the cells for 24 hours. Cells were lysed and analyzed by Western blotting to determine the amount of progranulin protein. […] No signal was detected in lysate from cells transfected with R493X in the absence of any compounds, serving as a negative control. The FLAG-tagged WT progranulin was included as a positive control to define the expected progranulin-FLAG amount. […] It is noted that G418 induced a stronger effect than gentamicin.
A series of G418 and gentamicin concentrations were tested to examine the dose response of the read-through effect. N2A cells were transfected with the R493X progranulin plasmid, allowed to recover for 6 hours, fresh media containing either G418 or gentamicin at 100, 500, 1000 or 2000 μg/ml was added to cells for 24 hours. Cells were then lysed and lysates analyzed by Western blotting. The read-through was dose-dependent with the highest progranulin-FLAG signal corresponding to the highest concentration of compound (FIG. 2A). […]

Q125X progranulin = assay: Read-through of progranulin Q125X nonsense mutation in transfected N2A cells (FLAG Western blot); format: cell-based, human; conditions: 24 hours
Text: as §1
(§4) N2A cells were maintained in DMEM (Sigma, D5796) supplemented with 10% fetal bovine serum, 100 unit/mL penicillin, and 100 μg/mL streptomycin. […]
as §3
(§5) Whether G418 or gentamicin could induce read-through of two additional progranulin nonsense mutations (Q125X or Y229X) and a FUS nonsense mutation R495X that has been identified in juvenile patients of the related neurodegenerative disease ALS was also tested.

Y229X progranulin = assay: Read-through of progranulin Y229X nonsense mutation in transfected N2A cells (FLAG Western blot); format: cell-based, human; conditions: 24 hours
Text: as §1, §4, §3, §5

R495X FUS = assay: Read-through of FUS R495X nonsense mutation in transfected N2A cells (FLAG Western blot); format: cell-based; conditions: three concentrations, 24 hours
Experimental: Examination of G418 on the R495X mutation of FUS responsible for familial ALS. WT or R495X FUS was tagged with FLAG at the N-terminus. N2A cells were transfected with WT or R495X FUS, allowed to recover, and treated with three concentrations of G418 for 24 hours. Cells were harvested and cell lysates were subjected to SDS-PAGE and Western analysis using anti-FLAG (top) and anti-actin (lower) antibodies. The slightly higher band is WT FUS and the lower band is R495X truncated FUS.
as §2, with “air. […]” for “air.”
as §5

LAMB3 PTC = conditions: reported (ref. 27); cited from earlier work
R493X progranulin mRNA = assay: Full-length progranulin R493X mRNA level in N2A cells (qPCR); format: cell-based, human; conditions: with G418 treatment, qPCR (FIG. 5)
Experimental: N2A cells were exposed to G418 treatment for 24 hours with indicated concentrations after transfection. Primers specific for full length PGRN mRNA were used for qPCR. All results were normalized to full length WT progranulin in non-treated cells. N.S.: no significance. **, p<0.01; ***, p<0.001.
Total RNA was extracted with Aurum total RNA mini kit (BioRad, Cat. 732-6820), and cDNA was generated with SuperScript III first-strand synthesis system for RT-PCR (Invitrogen, Cat. 18080-051). Quantitive PCR was performed using SYBR Green (ThermoScientific, Cat. 4309155). Beta-actin primers: forward 5′-AGAGCTATGAGCTGCCTGAC-3′ (SEQ ID NO: 1); reverse 5′-GGATGTCAACGTCACACTTC-3′(SEQ ID NO: 2). Primers used for full length progranulin mRNA (including flag encoding sequence) is: forward 5′-CGTGAAGGCTTGATCCTGCGAGA-3′ (SEQ ID NO: 3), reverse 5′-CTTATCGTCATCCTTGTAATC-3′ (SEQ ID NO: 4). Annealing temperature for both beta-actin and progranulin qPCR reaction were 60° C.
In addition to inducing read-through, it has been reported that aminoglycosides can also stabilize mRNAs, which could enhance the read-through effect (35, 36). Therefore, qPCR was used to determine the mRNA levels in the absence and presence of G418.

R493X progranulin [2] = assay: Read-through of progranulin R493X nonsense mutation in transfected N2A cells (FLAG Western blot); format: cell-based, human; conditions: time course, 1000 μg/ml G418, 12 hours

CN[C@@H]1[C@@H](O)[C@@H](O[C@@H]2[C@@H](O)[C@H](O[C@H]3OC(CN)=CC[C@H]3N)[C@@H](N)C[C@H]2N)OC[C@]1(C)O [sisomicin]
read-through of R493X progranulin (FLAG-positive bands in Western blot) (R493X progranulin [1]): did not have any detectable read-through effect

NC[C@@H]1O[C@H](O[C@H]2[C@@H](O)[C@H](O[C@@H]3[C@@H](O)[C@H](N)C[C@H](N)[C@H]3O[C@H]3O[C@H](CN)[C@@H](O)[C@H](O)[C@H]3N)O[C@@H]2CO)[C@H](N)[C@@H](O)[C@@H]1O [neomycin B]
read-through of R493X progranulin (FLAG-positive bands in Western blot) (R493X progranulin [1]): did not have any detectable read-through effect

O=C(O)c1cccc(-c2noc(-c3ccccc3F)n2)c1 [PTC124]
read-through of R493X progranulin (FLAG-positive bands in Western blot) (R493X progranulin [1]): did not have any detectable read-through effect

[H]/N=C(/N)N[C@H]1[C@H](O)[C@@H](O)[C@H](O[C@@H]2O[C@@H](C)[C@](O)(C=O)[C@H]2O[C@@H]2O[C@@H](CO)[C@H](O)[C@@H](O)[C@@H]2NC)[C@@H](N/C(N)=N\[H])[C@@H]1O [streptomycin]
read-through of R493X progranulin (FLAG-positive bands in Western blot) (R493X progranulin [1]): did not have any detectable read-through effect

gentamicin
rescued R493X expression / read-through efficiency as % of wild-type progranulin (summary statement) (R493X progranulin [1]): less than 10%
read-through of R493X progranulin (FLAG-positive bands in Western blot) (R493X progranulin [1]): induced FLAG bands; also recorded: induced read-through
read-through, FLAG band intensity as percentage of WT progranulin (R493X progranulin [1]): 8.6%
read-through of Q125X progranulin (full-length protein by FLAG antibody) (Q125X progranulin): did not induce read-through
read-through of Q125X progranulin (full-length protein by FLAG antibody) (Q125X progranulin; listed as Gentamicin): no readthrough effect
read-through of Y229X progranulin (full-length protein by FLAG antibody) (Y229X progranulin): did not induce read-through
read-through of Y229X progranulin (full-length protein by FLAG antibody) (Y229X progranulin; listed as Gentamicin): no readthrough effect
read-through of FUS R495X (full-length protein) (R495X FUS): did not induce read-through
read-through of FUS R495X (full-length protein) (R495X FUS; listed as Gentamicin): did not induce readthrough
read-through of the LAMB3 PTC (LAMB3 PTC): 30-50%

NC[C@H]1O[C@H](O[C@H]2[C@H](O)[C@@H](O[C@H]3O[C@H](CO)[C@@H](O)[C@H](N)[C@H]3O)[C@H](N)C[C@@H]2N)[C@H](N)C[C@@H]1O [tobramycin]
read-through of R493X progranulin (FLAG-positive bands in Western blot) (R493X progranulin [1]): did not have any detectable read-through effect

CN[C@@H]1[C@@H](O[C@H]2O[C@H](CO)[C@@H](N)[C@H](O)[C@H]2O)OC2C[C@@H](N)[C@@H](O[C@H]3[C@H](O)[C@@H](O)[C@H](N)C[C@@H]3N)OC2[C@@H]1O (some centres unmarked) [apramycin]
read-through of R493X progranulin (FLAG-positive bands in Western blot) (R493X progranulin [1]): did not have any detectable read-through effect

CN[C@@H]1[C@@H](O)[C@@H](O[C@@H]2[C@@H](O)[C@H](O[C@H]3O[C@H]([C@@H](C)O)[C@@H](O)[C@H](O)[C@H]3N)[C@@H](N)C[C@H]2N)OC[C@]1(C)O [G418]
rescued R493X expression / read-through efficiency as % of wild-type progranulin (summary statement) (R493X progranulin [1]): ~50%
read-through, FLAG band intensity as percentage of WT progranulin (R493X progranulin [1]): 33.8% and > 30%
mRNA level of R493X as % of WT progranulin (R493X progranulin mRNA): ~60%
read-through as % of the WT control (R493X progranulin [2]): ≈ 5%

NCC[C@H](O)C(=O)N[C@@H]1C[C@H](N)[C@@H](O[C@H]2O[C@H](CN)[C@@H](O)[C@H](O)[C@H]2O)[C@H](O)[C@H]1O[C@H]1O[C@H](CO)[C@@H](O)[C@H](N)[C@H]1O [amikacin]
read-through of R493X progranulin (FLAG-positive bands in Western blot) (R493X progranulin [1]): did not have any detectable read-through effect

CCN[C@@H]1C[C@H](N)[C@@H](O[C@H]2OC(CN)=CC[C@H]2N)[C@H](O)[C@H]1O[C@H]1OC[C@](C)(O)[C@H](NC)[C@H]1O [netilmicin]
read-through of R493X progranulin (FLAG-positive bands in Western blot) (R493X progranulin [1]): did not have any detectable read-through effect

NC[C@@H]1O[C@H](O[C@H]2[C@@H](O)[C@H](O[C@@H]3[C@@H](O)[C@H](N)C[C@H](N)[C@H]3O[C@H]3O[C@H](CO)[C@@H](O)[C@H](O)[C@H]3N)O[C@@H]2CO)[C@H](N)[C@@H](O)[C@@H]1O [paromomycin]
read-through of R493X progranulin (FLAG-positive bands in Western blot) (R493X progranulin [1]): did not have any detectable read-through effect

Reference: patent US11560559B2, “Inducing production of full-length progranulin (GRN) from nucleotides including mutations containing a premature stop codon (PTC)” (University of Kentucky Research Foundation, priority 2018, dated 2023)
